Data published in PMC9603170, “Protein Kinase C Inhibitors Reduce SARS-CoV-2 Replication in Cultured Cells” (Microbiology Spectrum, 2022).
Read-outs that look alike come from different tables or passages of the source.

How the values were obtained:
A549-ACE2 cells = assay: CCK8 cell viability assay in A549-ACE2 cells; assay type: cell-based, human
Experimental: (§1) Cell viabilities were analyzed using cell counting kit 8 (CCK8) (catalog no. HY-K0301; MCE) according to the manufacturer’s instructions. Ten microliters of the CCK8 reagent was added to each well of a 96-well plate. After incubation at 37°C for 1 h, optical density (OD) values were measured at 450 nm using a BioTek instrument. The CC50 was calculated by nonlinear regression analysis.

wild-type SARS-CoV-2 [1] = assay type: cell-based; conditions: A549-ACE2; pretreated 1 h; MOI 0.8; 24 h p.i.; DMSO 20%
[2] = tested on: Zika virus (ZIKV) replicon; assay: ZIKV replicon luciferase assay in BHK-21 cells; assay type: cell-based; conditions: both 6 and 24 h posttransfection
Experimental: FIG 4 PKC inhibitors play an antiviral role during the early stage of SARS-CoV-2 replication. (A to E) Effect of PKC inhibitors on protein translation. BHK-21 cells were pretreated with DMSO or the indicated inhibitors for 1 h, followed by transfection with SARS-CoV-2 replicon RNA, GFP- or Renilla luciferase-expressing plasmids, or ZIKV replicon RNA. Luciferase assays or Western blot assays were performed at the indicated hours after transfection. MW, molecular weight; RLU, relative luciferase units. (F) Effect of PKC inhibitors on 3CL^pro activity. The protein activities were determined using a 2019 nCoV M^pro/3CL^pro inhibitor screening kit. SARS-CoV-2 3CL^pro, the substrate, and the inhibitors were incubated at 37°C for 5 min, and […] were measured at 490 nm using a multimode plate reader. […] P values were calculated by ANOVA with Dunnett’s multiple-comparison test or unpaired, two-tailed Student’s t tests (*, P < 0.05; **, P < 0.01; ***, P < 0.001; ****, P < 0.0001; NS, not significant).
To test whether these inhibitors specifically block viral protein translation, we compared the expression levels of ectopically expressed green fluorescent protein (GFP) or Renilla luciferase in the absence and presence of the PKC inhibitor. At 24 h posttransfection, the GFP protein levels or relative Renilla luciferase activities were determined by a Western blot or luciferase assay. […]

SARS-CoV-2 pseudovirus = assay type: cell-based; conditions: pretreated 1 h, % of DMSO
SARS-CoV-2 replicon [3] = assay: microbe, parasite or virus in culture; assay type: cell-based; conditions: for IC50: BHK-21 cells, read-out: IC50, SARS-CoV-2 replicon luciferase activity
Huh7 cells = assay: CCK8 cell viability assay in Huh7 cells; assay type: cell-based, human; conditions: human Huh7 cells; 24 h
Experimental: as §1

SARS-CoV-2 replicon [4] = assay: microbe, parasite or virus in culture; assay type: cell-based; conditions: human Huh7 cells, read-out: IC50, SARS-CoV-2 replicon luciferase activity
[5] = tested on: GFP- or Renilla luciferase-expressing plasmids; assay type: cell-based, hamster; conditions: BHK-21, 24 h posttransfection; for GFP levels vs DMSO-treated cells: Western blot
wild-type SARS-CoV-2 [6] = assay: Wild-type SARS-CoV-2 infection of A549-ACE2 cells, qRT-PCR of supernatant viral RNA; assay type: cell-based; conditions: 10 μM inhibitor, MOI 0.8, 24 h p.i.
BHK-21 cells = assay: CCK8 cell viability assay in BHK-21 cells; assay type: cell-based, hamster; conditions: 24 h
Experimental: as §1

SARS-CoV-2 3CL^pro = target: T1, SARS-CoV-2 3CL^pro (Severe acute respiratory syndrome coronavirus 2, UniProt P0DTD1); assay type: biochemical; conditions: 37°C, 5 min incubation
T1 construct: One microliter of SARS-CoV-2 3CL^pro reagent; purchased Beyotime P0312S

[7] = CCK8 cell viability assay in A549-ACE2 cells; assay type: cell-based, human; conditions: human
Experimental: as §1

[8] = CCK8 cell viability assay in Huh7 cells; assay type: cell-based, human
Experimental: as §1

[9] = CCK8 cell viability assay in BHK-21 cells; assay type: cell-based, hamster
Experimental: as §1

[10] = BHK-21 cells, read-out: CC50 (CCK8 cell viability)
[11] = BHK-21, pretreated 1 h, […], vs DMSO
[12] = Severe acute respiratory syndrome coronavirus 2, pretreated 1 h, […]
[13] = Severe acute respiratory syndrome coronavirus 2, Huh-7, 24 h
[14] = human Huh7 cells, 24 h, read-out: CC50 (CCK8 cell viability)

COc1ccc2c(c1)c(C1=C(c3c[nH]c4ccccc34)C(=O)NC1=O)cn2CCCN(C)C [Go 6983]
CC50 (A549-ACE2 cells): 50 µM | percentage of N-positive cells (wild-type SARS-CoV-2 [1]): 12% | replication levels of the ZIKV replicon [2]: barely affected | luciferase activity of pseudovirus relative to DMSO-treated cells (entry) (SARS-CoV-2 pseudovirus): about 35% | relative luciferase activity lower than that in DMSO-treated cells (SARS-CoV-2 replicon [3]): about 99% | replicon luciferase activities at all tested time points vs DMSO (SARS-CoV-2 replicon [3]): constantly lower | IC50 (SARS-CoV-2 replicon [3]; pretreated 1 h, […]): 0.087 µM | CC50 (Huh7 cells): 24.9 µM | IC50 (SARS-CoV-2 replicon [4]): 0.361 µM | Renilla luciferase activities vs DMSO-treated cells [5]: comparable | GFP levels vs DMSO-treated cells [5]: comparable | viral RNA level in supernatant, fold lower than DMSO (wild-type SARS-CoV-2 [6]): about 12 fold | CC50 (BHK-21 cells; [10]): 16.9 µM

CN(C)CCCn1cc(C2=C(c3c[nH]c4ccccc34)C(=O)NC2=O)c2ccccc21 [bisindolylmaleimide I]
CC50 (A549-ACE2 cells): 50.9 µM | percentage of N-positive cells (wild-type SARS-CoV-2 [1]): 3% | replication levels of the ZIKV replicon [2]: barely affected | luciferase activity of pseudovirus relative to DMSO-treated cells (entry) (SARS-CoV-2 pseudovirus): ~24% | relative luciferase activity lower than that in DMSO-treated cells (SARS-CoV-2 replicon [3]): ~96% | replicon luciferase activities at all tested time points vs DMSO (SARS-CoV-2 replicon [3]): constantly lower | IC50 (SARS-CoV-2 replicon [3]; pretreated 1 h, […]): 0.386 µM | CC50 (Huh7 cells): 30 µM | IC50 (SARS-CoV-2 replicon [4]): 0.413 µM | Renilla luciferase activities vs DMSO-treated cells [5]: comparable | GFP levels vs DMSO-treated cells [5]: comparable | viral RNA level in supernatant, fold lower than DMSO (wild-type SARS-CoV-2 [6]): ~16 fold | CC50 (BHK-21 cells; [10]): 15.9 µM

O=c1c2ccccc2[se]n1-c1ccccc1 [ebselen]
SARS-CoV-2 3CLpro protease activity (SARS-CoV-2 3CL^pro): dramatically reduced | replicon luciferase activity at 6 h (protein translation / polyprotein cleavage) (SARS-CoV-2 replicon [3]; [11]): reduced

Cn1cc(C2=C(c3cn(C4CCN(Cc5ccccn5)CC4)c4ccccc34)C(=O)NC2=O)c2ccccc21 [enzastaurin]
CC50 [7]: 80 µM | percentage of N-positive cells (wild-type SARS-CoV-2 [1]): 12% | luciferase activity of pseudovirus relative to DMSO-treated cells (entry) (SARS-CoV-2 pseudovirus): ~42% | relative luciferase activity lower than that in DMSO-treated cells (SARS-CoV-2 replicon [3]): ~92% | replicon luciferase activities at all tested time points vs DMSO (SARS-CoV-2 replicon [3]): constantly lower | IC50 (SARS-CoV-2 replicon [3]; [12]): 0.929 µM | CC50 at 24 h ([8]; human): 86.4 µM | IC50 (SARS-CoV-2 replicon [4]; [13]): 0.93 µM | viral RNA level in supernatant, fold lower than DMSO (wild-type SARS-CoV-2 [6]): ~3 fold | CC50 (BHK-21 cells; hamster): 160 µM | CC50 at 24 h ([9]; hamster, CC50 (CCK8 cell viability)): > 160 µM

CCC(CC)COC(=O)[C@H](C)N[P@](=O)(OC[C@H]1O[C@@](C#N)(c2ccc3c(N)ncnn23)[C@H](O)[C@@H]1O)Oc1ccccc1 [remdesivir]
replicon luciferase activity at 6 h (protein translation / polyprotein cleavage) (SARS-CoV-2 replicon [3]; [11]): did not alter | replicon luciferase activity at 24 h (RNA synthesis) (SARS-CoV-2 replicon [3]; [11]): significantly reduced

CC(=O)c1c(O)c(C)c(O)c(Cc2c(O)c3c(c(C(=O)/C=C/c4ccccc4)c2O)OC(C)(C)C=C3)c1O [rottlerin]
IC50 (SARS-CoV-2 replicon [3]; [12]): 0.479 µM | CC50 at 24 h [8, 14]: 4.46 µM | IC50 (SARS-CoV-2 replicon [4]; [13]): 0.33 µM | CC50 at 24 h ([9]; hamster; BHK-21 cells; 24 h; read-out: CC50 (CCK8 cell viability)): 1.43 µM

CN1CCN(c2nc(C3=C(c4c[nH]c5ccccc45)C(=O)NC3=O)c3ccccc3n2)CC1 [sotrastaurin]
luciferase activity of pseudovirus relative to DMSO-treated cells (entry) (SARS-CoV-2 pseudovirus): ~55% | relative luciferase activity lower than that in DMSO-treated cells (SARS-CoV-2 replicon [3]): ~89% | replicon luciferase activities at all tested time points vs DMSO (SARS-CoV-2 replicon [3]): constantly lower | IC50 (SARS-CoV-2 replicon [3]; [12]): 2.67 µM | CC50 at 24 h [8, 14]: 50.8 µM | IC50 (SARS-CoV-2 replicon [4]; [13]): 1.9 µM | CC50 at 24 h ([9]; hamster, BHK-21 cells; 24 h; read-out: CC50 (CCK8 cell viability)): 82.2 µM
